Values of other authors in patent US6906044B2, “Regeneration of articular cartilage damaged by grade I and II osteoarthritis by means of the intraarticular application of a mixture of sodium hyaluronate and chondroitin sulfate in a gel vehicle” (Alcon, Inc., priority 2001, dated 2005).

System: injured knees of the horses
Details: observed by veterinarians at racetracks

sodium hyaluronate
reaction in injured knees: beneficial reaction
